The results in this text go back to ChEMBL document CHEMBL4411307, “N,N'-diaryl-bishydrazones in a biphenyl platform: Broad spectrum antifungal agents” (Eur J Med Chem, 2019).

Values after ≈ are worked out from the molar mass of the structure shown. Active and inactive are the calls of the source. The rule behind the calls is not given here. A value given as a limit tells only on which side of the number the result lay.

The subject of test [1] is Candida albicans. Description: Antifungal activity against fluconazole/ITC-resistant Candida albicans ATCC MYA-1237 measured after 48 hrs by CLSI M27-A3 protocol based method. It counts as functional. To be noted: ATCC MYA-1237, 48 h.
For the next test, the system named is Aspergillus terreus. As to the kind of experiment: Antifungal activity against Aspergillus terreus ATCC MYA-3633 measured after 48 hrs by CLSI M38-A2 protocol based method. In kind it is functional. To be noted: ATCC MYA-3633, 48 h.
For test [2], the system named is Candida albicans. As to the kind of experiment: Antifungal activity against fluconazole/ITC-resistant Candida albicans ATCC 64124 measured after 48 hrs by CLSI M27-A3 protocol based method. In kind it is functional. To be noted: ATCC 64124, 48 h.
The test system of test [3] is Candida albicans. As to the kind of experiment: Antifungal activity against fluconazole/ITC-susceptible Candida albicans ATCC MYA-2876 measured after 48 hrs by CLSI M27-A3 protocol based method. It counts as functional. The settings on record: ATCC MYA-2876, 48 h.
Test [4] deals with Candida albicans. As to the kind of experiment: Antifungal activity against fluconazole/ITC-resistant Candida albicans ATCC 90819 measured after 48 hrs by CLSI M27-A3 protocol based method. In kind it is functional. To be noted: ATCC 90819, 48 h.
In a further test the test system is Candida parapsilosis. Description: Antifungal activity against Candida parapsilosis ATCC 22019 measured after 48 hrs by CLSI M27-A3 protocol based method. In kind it is functional. To be noted: Lodderomyces parapsilosis, ATCC 22019, 48 h.
Test [5] deals with Candida albicans. As to the kind of experiment: Antifungal activity against fluconazole/ITC-resistant Candida albicans ATCC 10231 measured after 48 hrs by CLSI M27-A3 protocol based method. It counts as functional. The settings on record: ATCC 10231, 48 h.
The subject of test [6] is Candida albicans. As to the kind of experiment: Antifungal activity against fluconazole/ITC-resistant Candida albicans ATCC MYA-1003 measured after 48 hrs by CLSI M27-A3 protocol based method. In kind it is functional. The settings on record: ATCC MYA-1003, 48 h.
Another test deals with Aspergillus nidulans. As to the kind of experiment: Antifungal activity against Aspergillus nidulans ATCC 38163 measured after 48 hrs by CLSI M38-A2 protocol based method. In kind it is functional. The settings on record: ATCC 38163, 48 h.
The subject of test [7] is Candida albicans. Description: Antifungal activity against fluconazole/ITC-susceptible Candida albicans ATCC MYA-2310 measured after 48 hrs by CLSI M27-A3 protocol based method. It counts as functional. The settings on record: ATCC MYA-2310, 48 h.
In another test the test system is Nakaseomyces glabratus. Description: Antifungal activity against Candida glabrata ATCC 2001 measured after 48 hrs by CLSI M27-A3 protocol based method. It counts as functional. To be noted: CBS 138, 48 h.
The next test has as its system Pichia kudriavzevii. Description: Antifungal activity against Candida krusei ATCC 6258 measured after 48 hrs by CLSI M27-A3 protocol based method. In kind it is functional. The settings on record: ATCC 6258, 48 h.
Another test has as its system Aspergillus flavus. As to the kind of experiment: Antifungal activity against Aspergillus flavus ATCC MYA-3631 measured after 48 hrs by CLSI M38-A2 protocol based method. In kind it is functional. The settings on record: ATCC MYA-3631, 48 h.
The test system of the next test is Staphylococcus aureus. Description: Antibacterial activity against methicillin-resistant Staphylococcus aureus. In kind it is functional, organism-based.
Another test deals with Listeria monocytogenes. As to the kind of experiment: Antibacterial activity against Listeria monocytogenes. In kind it is functional, organism-based.
The subject of a further test is Enterococcus. Description: Antibacterial activity against vancomycin-resistant Enterococcus. In kind it is functional, organism-based.

For orientation: MIC means the lowest concentration found to suppress growth. As for `C/C(=N\NC(=N)N)c1ccc(-c2ccc(/C(C)=N/NC(=N)N)cc2)cc1`, the MIC against Candida albicans [1] was 15.6 µg/mL (≈ 44.5 µM); against Aspergillus terreus, above 31.3 µg/mL; with Candida albicans [2], 3.9 µg/mL (≈ 11.1 µM); with Candida albicans [3], 15.6 µg/mL (≈ 44.5 µM); in the test on Candida albicans [4] it was 3.9 µg/mL (≈ 11.1 µM); in the test on Candida parapsilosis, 1.95 µg/mL (≈ 5.56 µM). Further, the MIC against Candida albicans [5] worked out at 3.9 µg/mL (≈ 11.1 µM); in the test on Candida albicans [6], 15.6 µg/mL (≈ 44.5 µM); in the test with Aspergillus nidulans, 15.6 µg/mL (≈ 44.5 µM); against Candida albicans [7] it was 15.6 µg/mL (≈ 44.5 µM); in the test with Nakaseomyces glabratus it was 7.8 µg/mL (≈ 22.3 µM); in the test with Pichia kudriavzevii, 3.9 µg/mL (≈ 11.1 µM). The molecule also gave an MIC in the test on Aspergillus flavus above 31.3 µg/mL.
In the case of `Fc1ccc(N/N=C/c2ccc(-c3ccc(/C=N/Nc4ccc(F)cc4F)cc3)cc2)c(F)c1`, the MIC with Candida albicans [1] is above 31.3 µg/mL; against Aspergillus terreus, above 31.3 µg/mL; against Candida albicans [2] it was above 31.3 µg/mL; with Candida albicans [3] it was above 31.3 µg/mL; in the test on Candida albicans [4], 31.3 µg/mL (≈ 67.7 µM); in the test on Candida parapsilosis, above 31.3 µg/mL. For the same molecule, the MIC is 7.8 µg/mL (≈ 16.9 µM) against Candida albicans [5]; above 31.3 µg/mL in the test with Candida albicans [6]; above 31.3 µg/mL against Aspergillus nidulans; above 31.3 µg/mL in the test on Candida albicans [7]; above 31.3 µg/mL with Nakaseomyces glabratus; above 31.3 µg/mL against Pichia kudriavzevii. The same molecule yielded an MIC with Aspergillus flavus above 31.3 µg/mL. For the same molecule, the result with Staphylococcus aureus, with Listeria monocytogenes and with Enterococcus was inactive.
For `Brc1ccc(N/N=C/c2ccc(-c3ccc(/C=N/Nc4ccc(Br)cc4)cc3)cc2)cc1`, the MIC in the test with Candida albicans [1] is above 31.3 µg/mL; against Aspergillus terreus, above 31.3 µg/mL; against Candida albicans [2] it was above 31.3 µg/mL; in the test on Candida albicans [3] it was above 31.3 µg/mL; with Candida albicans [4], above 31.3 µg/mL; in the test with Candida parapsilosis, 31.3 µg/mL (≈ 57.1 µM). Further, the MIC in the test on Candida albicans [5], with Candida albicans [6], in the test on Aspergillus nidulans, in the test with Candida albicans [7], against Nakaseomyces glabratus and in the test with Pichia kudriavzevii was above 31.3 µg/mL in each case. The MIC against Aspergillus flavus was above 31.3 µg/mL. Moreover, the outcome with Staphylococcus aureus, in the test on Listeria monocytogenes and in the test on Enterococcus was inactive.
`Fc1cc(F)cc(N/N=C/c2ccc(-c3ccc(/C=N/Nc4cc(F)cc(F)c4)cc3)cc2)c1`: the MIC in the test with Candida albicans [1], in the test with Aspergillus terreus, in the test with Candida albicans [2], in the test on Candida albicans [3], in the test with Candida albicans [4] and in the test with Candida parapsilosis was above 31.3 µg/mL throughout. Also, the MIC with Candida albicans [5] was 15.6 µg/mL (≈ 33.7 µM); in the test with Candida albicans [6], above 31.3 µg/mL; in the test on Aspergillus nidulans, above 31.3 µg/mL; in the test with Candida albicans [7], above 31.3 µg/mL; with Nakaseomyces glabratus it was above 31.3 µg/mL; against Pichia kudriavzevii it was above 31.3 µg/mL. For the same molecule, the MIC with Aspergillus flavus was above 31.3 µg/mL. The result in the test with Staphylococcus aureus, in the test with Listeria monocytogenes and with Enterococcus was inactive.
Take `N#Cc1ccc(N/N=C/c2ccc(-c3ccc(/C=N/Nc4ccc(C#N)cc4)cc3)cc2)cc1`: the MIC was above 31.3 µg/mL against Candida albicans [1]; 31.3 µg/mL (≈ 71.1 µM) against Aspergillus terreus; above 31.3 µg/mL with Candida albicans [2]; above 31.3 µg/mL with Candida albicans [3]; above 31.3 µg/mL in the test with Candida albicans [4]; above 31.3 µg/mL in the test with Candida parapsilosis. For the same molecule, the MIC against Candida albicans [5] is above 31.3 µg/mL; in the test with Candida albicans [6] it was 31.3 µg/mL (≈ 71.1 µM); in the test on Aspergillus nidulans, above 31.3 µg/mL; against Candida albicans [7], above 31.3 µg/mL; with Nakaseomyces glabratus it was above 31.3 µg/mL; with Pichia kudriavzevii, above 31.3 µg/mL. In the test with Aspergillus flavus, this molecule yielded an MIC above 31.3 µg/mL. In addition, the outcome with Staphylococcus aureus, in the test on Listeria monocytogenes and in the test with Enterococcus was inactive.
Turning to `COc1ccc(N/N=C(\C)c2ccc(-c3ccc(/C(C)=N/Nc4ccc(OC)cc4)cc3)cc2)cc1`, the MIC was 7.8 µg/mL (≈ 16.3 µM) against Candida albicans [1]; above 31.3 µg/mL against Aspergillus terreus; 15.6 µg/mL (≈ 32.6 µM) against Candida albicans [2]; 15.6 µg/mL (≈ 32.6 µM) in the test on Candida albicans [3]; 31.3 µg/mL (≈ 65.4 µM) against Candida albicans [4]; above 31.3 µg/mL against Candida parapsilosis. For the same molecule, the MIC is 15.6 µg/mL (≈ 32.6 µM) against Candida albicans [5]; 7.8 µg/mL (≈ 16.3 µM) against Candida albicans [6]; above 31.3 µg/mL with Aspergillus nidulans; 15.6 µg/mL (≈ 32.6 µM) with Candida albicans [7]; 7.8 µg/mL (≈ 16.3 µM) against Nakaseomyces glabratus; 15.6 µg/mL (≈ 32.6 µM) against Pichia kudriavzevii. Also, in the test on Aspergillus flavus, the MIC is above 31.3 µg/mL. Further, the result with Staphylococcus aureus, with Listeria monocytogenes and in the test on Enterococcus was inactive.
